Assay results: patent publication US12698523B2, “Enhancement of nucleic acid polymerization by aromatic compounds” (priority 2019, dated 2026)

Experiments:
[1] = target: T1, C4760 DNA polymerase (a variant of DPO4, SEQ ID NO:2) (Saccharolobus solfataricus, UniProt Q97W02, A155G/A42V/D156R/D292Y/D294N/E291S/E324K/E325K/E327K/E63R/E79L/G187P/G299W/I153V/I189F/I248T/I295S/K152A/K317Q/K321Q/K56Y/K78D/L293W/M76W/N188Y/P184Q/Q82W/Q83G/R300S/S297Y/S86E/T290K/T301W/V289W/V296Q); experiment: Primer extension assay with a 411mer amplicon template; assay type: biochemical, Sulfolobus solfataricus
T1 construct: made in house
T1 sequence (Q97W02 other isoform, or with tags, fused parts or gaps with the stated changes): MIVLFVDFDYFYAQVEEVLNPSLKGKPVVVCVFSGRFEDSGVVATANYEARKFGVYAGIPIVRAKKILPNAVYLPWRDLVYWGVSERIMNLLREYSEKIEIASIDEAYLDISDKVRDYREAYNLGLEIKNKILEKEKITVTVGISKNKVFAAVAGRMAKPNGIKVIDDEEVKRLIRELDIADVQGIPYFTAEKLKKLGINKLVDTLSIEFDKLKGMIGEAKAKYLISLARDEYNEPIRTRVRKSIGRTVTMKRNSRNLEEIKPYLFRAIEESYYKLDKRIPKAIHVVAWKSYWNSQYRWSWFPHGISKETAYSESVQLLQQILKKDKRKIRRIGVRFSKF
Protocol: PEM activity of compound 15 was tested in primer extension assays using a 411mer amplicon template. Primer extension reactions included the following reagents: 50 Mm TrisCl, 200 Mm NH4Oac, 20% PEG8K, 5% NMS, 3 nmol PP-60.20, 2 Mm MnCl2, 2 μg Kod single-strand binding protein (SSB), 1 M urea, 250 pmol each XNTP, 1 pmol template, 1 pmol oligonucleotide primer, 1.2 μg purified recombinant C4760 DNA polymerase (a variant of DPO4, see SEQ ID NO:2), and 2 (lane 2) or 3 (lane 3) Mm PEM. 10 μL primer extension reactions were run for 20 minutes at 37° C. and reaction products were analyzed by gel electrophoresis. A representative gel showing primer extension products is presented in FIG. 12 (the position of a 277mer is indicated by the arrow). […] Remarkably, the polymerase is completely dependent upon the addition of PEM to the reaction in order to be capable of synthesizing these lengthy Xpandomer products. Even longer extension products may be obtained by optimizing various reaction parameters, e.g., extension time and/or concentrations of various additives.
PEM activity of compound 19, was tested in primer extension assays using the 411mer amplicon template. […] 10 μL primer extension reactions were run for 30 minutes at 37° C. and reaction products were analyzed by gel electrophoresis. […]

DNA polymerase [2] = experiment: Sequencing by Expansion (SBX) of primer extension products, nanopore reads aligned to template; assay type: biochemical
Text: To investigate the accuracy of PEM-dependent enhancement of XNTP polymerization, primer extension products were sequenced using the SBX protocol. Briefly, the constrained Xpandomer products of XNTP polymerization are cleaved to generate linearized Xpandomers. This is accomplished by first quenching the extension reaction with a solution containing 100 Mm EDTA, 2 Mm THPTA, and 2% Tween-20. Then the sample is subjected to amine modification with a solution of 1 M NaHCO3 and 1 M succinic anhydride in DMF. Cleavage of the phosphoramidate bonds is carried out with 37% HCl and linearized Xpandomers are purified with QIAquick columns (QIAGEN, Inc.).
For sequencing, protein nanopores are prepared by inserting a-hemolysin into a DphPE/hexadecane bilayer member in buffer B1, containing 2 M NH4Cl and 100 Mm HEPES, Ph 7.4. The cis well is perfused with buffer B2, containing 0.4 M NH4Cl, 0.6 M GuCl, and 100 Mm HEPES, Ph 7.4. The Xpandomer sample is heated to 70° C. for 2 minutes, cooled completely, then a 2 μL sample is added to the cis well. A voltage pulse of 90 Mv/390 Mv/10 μs is then applied and data is acquired via Labview acquisition software.
Sequence data is analyzed by histogram display of the population of sequence reads from a single SBX reaction. […]

DNA polymerase [3] = experiment: Screen of PEMs for enhancement of XNTP polymerization (primer extension reaction, gel electrophoresis); assay type: biochemical; conditions: FIG. 4 gel; no PEM additive: up to only around 14 XNTPs
Text: The Sequencing by Expansion (SBX) methodology developed by the inventors provides significant performance enhancements in sequence read efficiency and accuracy of Xpandomers relative to native DNA. However, initial transcription of the sequence of the natural DNA template onto the measurable Xpandomer relies on the ability of DNA polymerase to utilize XNTPs as substrates (the generalized structure of an XNTP is discussed herein with reference to FIG. 1A and FIG. 2). […] In an effort to improve the efficiency and accuracy of XNTP polymerization into Xpandomers, several PEMs were screened for the ability to enhance DNA polymerase primer extension reactions using XNTPs as substrates.
A representative primer extension reaction may include the following reagents: 2 pmol primer, 2.2 pmol 45mer oligonucleotide template, 50 pmol of each XNTP (XATP, XCTP, XGTP, and XTTP), 50 Mm Tris HCl, Ph 6.79, 200 Mm NaCl, 20% PEG, 5% NMS, 0.5 nmol polyphosphate 60.19, 0.3 Mm MnCl2, and 0.6 μg of purified recombinant DNA polymerase protein. Reactions may be run for 1 hr at 23° C. Reaction products (i.e., constrained Xpandomers) are treated to cleave the phosphoramidate bonds, thereby generating linearized Xpandomers. Reaction products may be analyzed using gel electrophoresis on 4-12% acrylamide gels to resolve and visualize Xpandomer products of different lengths. For the PEM screen described above, PEMs were typically tested in the micro to millimolar range.
Again, this PEM activity is specific for compound 2, as other unrelated aromatic compounds had no effect (lanes 2-7).

[4] = target: T2, C4552 (variant of DPO4 DNA polymerase, SEQ ID NO:1) (Saccharolobus solfataricus, UniProt Q97W02, A155G/A42V/D156R/D292Y/D294N/E291S/E324K/E325K/E327K/E79L/G187P/G299W/I153V/I189F/I248T/I295S/K152A/K317Q/K321Q/K56Y/K78D/L293W/M76W/N188Y/P184Q/Q82W/Q83G/R300S/S297Y/S86E/T290K/T301W/V289W/V296Q); experiment: XNTP polymerization on longer templates (88, 127, 227, 277 nucleotides); assay type: biochemical, Sulfolobus solfataricus; conditions: 1 Mm compound; templates of 88, 127, 227, 277 nucleotides; 1-2 hr at 23° C.; FIG. 8
T2 construct: made in house
T2 sequence (Q97W02 other isoform, or with tags, fused parts or gaps with the stated changes): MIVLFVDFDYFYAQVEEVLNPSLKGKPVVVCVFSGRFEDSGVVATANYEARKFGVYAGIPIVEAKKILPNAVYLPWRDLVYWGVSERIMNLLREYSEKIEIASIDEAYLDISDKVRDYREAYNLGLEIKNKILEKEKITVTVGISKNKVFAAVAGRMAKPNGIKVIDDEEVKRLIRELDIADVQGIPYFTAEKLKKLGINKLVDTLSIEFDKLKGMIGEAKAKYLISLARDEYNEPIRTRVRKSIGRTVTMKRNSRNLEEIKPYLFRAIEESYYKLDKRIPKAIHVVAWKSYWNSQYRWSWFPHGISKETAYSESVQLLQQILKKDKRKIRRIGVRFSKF
Protocol: Following the success of accurately replicating templates of up to 80 nucleotides in length into Xpandomers, XNTP polymerization reactions were conducted using four longer templates, consisting of 88, 127, 227, and 277 nucleotides in length. A variant of DPO4 DNA polymerase, referred to as C4552 (SEQ ID NO:1), was used in these polymerization reactions and reaction conditions were optimized for C4552 activity in the presence of PEM compound 1. Other suitable DPO4 polymerase variants include, but are not limited to, those of SEQ ID NO:s 2-5. In addition to 1 Mm compound 1, reaction additives included […] and 2.75 μg single-strand binding protein (Eco SSB). Extension reactions were carried out with 0.85 pmol template, 0.5 pmol oligonucleotide primer, and 1 nmol each XNTP in a final volume of 10 μL. Reactions were run in buffer composed of 50 Mm TrisCl, Ph 8.84, 200 Mm NH4Oac, and 20% PEG8K supplemented with 5% NMS, polyphosphate PP-60.20 in amounts of 3 or 4 nmol, and 2 Mm MnCl2. 1.2 μg purified recombinant DNA polymerase protein was used in each extension reaction and reactions were run for 1-2 hr at 23° C. […] Lanes 1-5 and 6-10 represent identical extension reactions with the exception of the amount of PP-60.20 additive, which was 3 nmol in lanes 1-5 and 4 nmol in lanes 6-10.

C4552 DNA polymerase = target: T3, C4552 DNA polymerase (Saccharolobus solfataricus, UniProt Q97W02, A155G/A42V/D156R/D292Y/D294N/E291S/E324K/E325K/E327K/E79L/G187P/G299W/I153V/I189F/I248T/I295S/K152A/K317Q/K321Q/K56Y/K78D/L293W/M76W/N188Y/P184Q/Q82W/Q83G/R300S/S297Y/S86E/T290K/T301W/V289W/V296Q); experiment: Primer extension assay with three 100mer templates derived from the HIV1, 2 and 3 genomes; assay type: biochemical, Sulfolobus solfataricus; conditions: 0.5 Mm PEM; HIV1, HIV2, HIV3 100mer templates; 30 minutes at 23° C.; FIG. 9
T3 construct: made in house
Protocol: PEM activity of compounds 9-11 was tested in primer extension assays using three 100mer templates, derived from the HIV1, 2, and 3 genomes. Primer extension reactions included the following reagents: 75 Mm TrisCl, Ph 8.44, 175 Mm NH4Oac, 20% PEG8K, 5% NMS, 0.8 nmol PP-60.20, 0.6 Mm MnCl2, 2.3 μg Tth single-strand binding protein (SSB), 0.5 M or 1 M urea, 200 pmol each XNTP, 1.1 pmol template, 1 pmol oligonucleotide primer, 1.2 μg purified recombinant C4552 DNA polymerase, and 0.5 Mm PEM. 10 μL primer extension reactions were run for 30 minutes at 23° C. and reaction products were analyzed by gel electrophoresis.

NC(=O)c1cc(-c2cn(-c3ccc(C(=O)O)c(O)c3)nn2)nc(-c2cn(-c3ccc(C(=O)O)c(O)c3)nn2)c1 [Compound 19, 4,4′-((4-carbamoylpyridine-2,6-diyl)bis(1H-1,2,3-triazole-4,1-diyl))bis(2-hydroxybenzoic acid)]
polymerization of XNTPs into lengthy Xpandomer copies (PEM activity) ([1]; 0.5, 1, or 1.5 Mm PEM, 30 minutes at 37° C., FIG. 14): enables polymerization of XNTPs into lengthy Xpandomer copies of the 411mer template, albeit in a manner less efficient than that of compound 14

O=C(O)c1ccc(-n2cc(-c3cccc(-c4cn(-c5ccc(C(=O)O)c(O)c5)nn4)n3)nn2)cc1O [Compound 1, 4,4′-(pyridine-2,6-diylbis(1H-1,2,3-triazole-4,1-diyl))bis(2-hydroxybenzoic acid)]
accuracy of SBX sequence reads (DNA polymerase [2]; 45mer template, FIG. 6B, without additive reads not accurate past around base 18): increased the accuracy of the sequence reads across the entire length of the 45mer template | accuracy of SBX sequence reads (DNA polymerase [2]; 60mer and 80mer templates, FIGS. 7A and 7B): enabled accurate sequence reads completely to the end of each of these longer templates | DNA polymerase-mediated primer extension with XNTPs (length of extension products) (DNA polymerase [3]): considerably longer extension products | polymerization of XNTPs into Xpandomer copies of long templates [4]: complete Xpandomer copies of each longer template | polymerization of XNTPs into full length Xpandomer copies (PEM activity) (C4552 DNA polymerase): enables polymerization of XNTPs into full length Xpandomer copies of the three different 100mer templates

CCOC(=O)c1cc(-c2cn(-c3ccc(O)c(C(=O)O)c3)nn2)nc(-c2cn(-c3ccc(O)c(C(=O)O)c3)nn2)c1 [Compound 15, 5,5′-((4-(ethoxycarbonyl)pyridine-2,6-diyl)bis(1H-1,2,3-triazole-4,1-diyl))bis(2-hydroxybenzoic acid)]
polymerization of XNTPs into lengthy Xpandomer copies (PEM activity) ([1]; 2 or 3 Mm PEM, 20 minutes at 37° C., FIG. 12): enables polymerization of XNTPs into lengthy Xpandomer copies of the 411mer template in a manner comparable to that of compound 14
